{"source": "paper PMC9413440", "about": "“An Iterative Approach Guides Discovery of the FabI Inhibitor Fabimycin, a Late-Stage Antibiotic Candidate with In Vivo Efficacy against Drug-Resistant Gram-Negative Infections” (ACS Central Science, 2022)", "assay_type_in_all_cases": "cell-based", "key": {"E. coli AR-0055": {"tested_on": "E. coli AR-0055", "assay": "MIC against infective strain of UTI model", "settings": "Escherichia coli, AR0055; extensively drug-resistant, carbapenem-resistant E. coli of the UTI model (AR-0055)", "method": "(§1) II. Materials and Methods for Biological Experiments\n(§2) S. aureus ATCC 29213 and E. coli MG1655 were obtained from the American Type Culture Collection (ATCC). E. coli BW25113 and E. coli JW5503 were obtained from the Keio Collection. AR-bank strains were obtained from the Centers for Disease Control and Prevention and FDA Antibiotic Resistance Isolate Bank.\n(§3) Antimicrobial susceptibility tests\n(§4) Susceptibility testing was performed in biological triplicate, unless noted otherwise, using the micro-dilution broth method as outlined by the Clinical and Laboratory Standards Institute. Bacteria were cultured with cation-adjusted Mueller Hinton broth (Sigma Aldrich, catalogue number: 90922). […]\nNH3: m/z 391.2 → 171.0. Fabimycin: m/z 405.3 → 145.3. Power analysis was not used to determine the number of replicates. Error bars represent the standard error of the mean of three biological replicates. All compounds evaluated in biological assays were ≥95% pure."}, "[1]": {"tested_on": "A. baumannii 19606 FabI mutants", "assay": "MIC of fabimycin-resistant mutants", "settings": "Acinetobacter baumannii", "method": "as §1, §2, §3, §4\n(§5) Error bars represent the standard error of the mean of three biological replicates. All compounds evaluated in biological assays were ≥95% pure.\n(§6) Selection of resistant mutants\n(§7) Resistant mutants were generated using the large inoculum method. Briefly, S. aureus 29213, E. coli MG1655, and A. baumannii 19606 (~1 x 1010 CFUs) was plated on 100-mm plates (E. coli and A. baumannii) or 150-mm plates (S. aureus) of MH agar containing either 128, 64, or 32 µg/mL fabimycin (for gram-negatives) or 0.125, 0.062, and 0.031 µg/mL fabimycin (for S. aureus). Plates were incubated at 37 °C for 48 h and counted for the presence of colony forming units.\n(§8) Glycerol stocks of selected colonies were made, and resistant colonies confirmed by growing on agar plates containing the same concentration of fabimycin that they were generated at.\n(§9) Sequencing of bacterial fabI\n(§10) The FabI gene was amplified by PCR. Fabimycin-resistant colonies were picked and diluted in 100 µL sterile, nuclease-free H2O. PCR reactions were then set up by combining 14 µL H2O, 1 µL 20 µM primer mix, 10 µL template (bacteria solution in H2O), and 25 µL MiFi Mix (Bioline). The reaction was performed on a C1000 Thermal Cycler (Bio-Rad) under the following conditions for 35 cycles: initial denature: 95 °C for 3 min; denature 95 °C for 15 s; anneal: 57 °C for 15 s; extend 72 °C for 30 s; final extend: 72 °C for 3 min. A 10 µL portion of PCR reaction mixture was analyzed by agarose gel electrophoresis to confirm the single 1.4-kilobase pair product. PCR products were purified using a GeneJET PCR Purification Kit (Thermo Fischer Scientific). PCR amplicons were submitted to the Core DNA Sequencing Facility at the University of Illinois at Urbana-Champaign for Sanger sequencing with overlapping internal primers. All primers were obtained from Integrated DNA Technologies.\n(§11) Primers for sequencing of fabI gene in select pathogens: […]\n(§12) Organism Sequence Reference\n(§13) Forward 5’-GGG-GCC-AGC-GTT-TCT-TTT-TC-3‘ Parker, 20203\n(§14) Reverse 5’-AAA-CAT-GGA-GAC-GGT-GCT-GG\n(§15) Forward 5’-GTG-AGA-TCG-GCA-TGA-CAC-AA-3’ Lin, 20179\n(§16) Reverse 5’-CTG-AAG-TCC-GCT-ACC-GTT-AT-3’\n(§17) Compound stability in mammalian plasma\n(§18) Candidate drugs were incubated with plasma and parent drug levels were monitored at various time points (generally t=0, 10, 20, 30, and 60 minutes) to determine the drug’s half-life in the presence of the chosen system. Each drug is tested in duplicate. Compounds were diluted from 10 mM DMSO stocks to 1 µM in a 100 mM pH 7.4 phosphate buffer and incubated at 37 °C with 0.5 mg/mL of human, rat, or mouse plasma (BioreclamationIVT, Baltimore, MD). Time points were collected at 0 min (after addition of drug), 15 min, 30 min, 60 min, and 120 min following quenching with an equal volume of acetonitrile. The supernatant was collected after centrifugation, and the sample analyzed by LC-MS where the percentage of compound remaining is plotted vs time to determine the drug’s half-life.\n(§19) Compound plasma protein binding\n(§20) Candidate drugs were incubated with plasma and parent drug levels are monitored after 4 hours to determine the drug’s free concentration in the presence of the plasma proteins. The standard assay involves equilibrium dialysis, in which compound is allowed to equilibrate between a protein-containing compartment from a protein-free compartment. Each"}, "[2]": {"tested_on": "E. coli MG1655 FabI mutants", "assay": "MIC of fabimycin-resistant mutants", "settings": "Escherichia coli", "method": "as §1, §2, §3, §4, §5, §6, §7, §8, §9, §10, §11, §12, §13, §14, §15, §16, §17, §18, §19, §20"}, "[3]": {"tested_on": "A. baumannii clinical isolates (n=100)", "assay": "MIC50/MIC90, clinical isolate panel", "settings": "Acinetobacter baumannii"}, "[4]": {"settings": "A. baumannii (n=100) clinical isolates"}}, "note": "Like-named read-outs stand apart in the source and are kept apart here.", "data": [{"compound": "Cc1c(CN(C)C(=O)/C=C/c2cnc3c(c2)CC[C@H](N)C(=O)N3)oc2ccccc12", "note": "[fabimycin]", "values": [{"measurement": "MIC", "setting": "E. coli AR-0055", "value": 2, "unit": "µg/mL"}, {"measurement": "MIC", "setting": "[1]; FabI mutation A118T, plated at 16x MIC (32 μg/mL), colonies 4/5, read-out: MIC of mutants", "value": "64 to 128", "unit": "µg/mL"}, {"measurement": "MIC", "setting": "[1]; FabI mutation N160K, plated at 16x MIC (32 μg/mL), colonies 1/5, read-out: MIC of mutants", "value": 128, "unit": "µg/mL"}, {"measurement": "MIC", "setting": "[1]; read-out: MIC of mutants, FabI WT, plated at 8x MIC (16 μg/mL), colonies 2/5", "value": "8 to 16", "unit": "µg/mL"}, {"measurement": "MIC", "setting": "[1]; read-out: MIC of mutants, FabI mutation A118T, plated at 32x MIC (64 μg/mL), colonies 4/5", "value": 64, "unit": "µg/mL"}, {"measurement": "MIC", "setting": "[1]; read-out: MIC of mutants, FabI mutation A118V, plated at 8x MIC (16 μg/mL), colonies 1/5", "value": 128, "unit": "µg/mL"}, {"measurement": "MIC", "setting": "[1]; read-out: MIC of mutants, FabI mutation F206L, plated at 8x MIC (16 μg/mL), colonies 1/5", "value": 32, "unit": "µg/mL"}, {"measurement": "MIC", "setting": "[1]; read-out: MIC of mutants, FabI mutation G151S, plated at 32x MIC (64 μg/mL), colonies 1/5", "value": 64, "unit": "µg/mL"}, {"measurement": "MIC", "setting": "[1]; read-out: MIC of mutants, FabI mutation M162T, plated at 8x MIC (16 μg/mL), colonies 1/5", "value": 128, "unit": "µg/mL"}, {"measurement": "MIC", "setting": "[2]; MG1655, FabI mutation G148S, plated at 16x MIC (32 μg/mL), colonies 2/5, read-out: MIC of mutants", "value": "≥ 128", "unit": "µg/mL"}, {"measurement": "MIC", "setting": "[2]; MG1655, read-out: MIC of mutants, FabI mutation G148A, plated at 8x MIC (16 μg/mL), colonies 3/5", "value": "32 to 64", "unit": "µg/mL"}, {"measurement": "MIC", "setting": "[2]; MG1655, read-out: MIC of mutants, FabI mutation G148A, plated at 16x MIC (32 μg/mL), colonies 3/5", "value": 64, "unit": "µg/mL"}, {"measurement": "MIC", "setting": "[2]; MG1655, read-out: MIC of mutants, FabI mutation G148S, plated at 8x MIC (16 μg/mL), colonies 1/5", "value": 128, "unit": "µg/mL"}, {"measurement": "MIC", "setting": "[2]; MG1655, read-out: MIC of mutants, FabI mutation M159T, plated at 8x MIC (16 μg/mL), colonies 1/5", "value": 32, "unit": "µg/mL"}, {"measurement": "MIC50", "setting": "[3]; [4]", "value": 4, "unit": "µg/mL"}, {"measurement": "MIC90", "setting": "[3]; [4]", "value": 8, "unit": "µg/mL"}, {"measurement": "MIC", "setting": "[3]; the 1 pan-resistant strain of the 100 A. baumannii clinical isolates", "value": 1, "unit": "µg/mL"}]}]}
